Here are results for 13 compounds from ChEMBL document CHEMBL5325421, “Discovery of novel sulfonamide chromone-oxime derivatives as potent indoleamine 2,3-dioxygenase 1 inhibitors” (Eur J Med Chem, 2023).

Data set [1] in a line: Toxicity in BALB/c mouse assessed as pathological changes in kidney at 50 to 100 mg/kg. The data set is classed as organism-based. To be noted: in vivo, dose 50-100 mg/kg.
Data set [2] concerns HeLa. The data set is described as follows: cells. To be noted: Homo sapiens, 48 h.
The nature of data set [3]: Toxicity in BALB/c mouse assessed as change in body weight at 50 to 100 mg/kg measured upto 22 days. The data set is classed as organism-based. The settings on record: in vivo, 528 h, dose 50-100 mg/kg, time < 22 day.
Data set [4] addresses T1, Indoleamine 2,3-dioxygenase 1 (Homo sapiens, UniProt P14902). In words: Binding affinity to human recombinant IDO1 assessed as dissociation constant measured for 60 sec by SPR assay. To be noted: dose 0.78-25 µM. A general note: SPR reads the build-up and loss of mass on a sensor chip optically.
Target sequence in this assay (P14902 whole entry, looked up): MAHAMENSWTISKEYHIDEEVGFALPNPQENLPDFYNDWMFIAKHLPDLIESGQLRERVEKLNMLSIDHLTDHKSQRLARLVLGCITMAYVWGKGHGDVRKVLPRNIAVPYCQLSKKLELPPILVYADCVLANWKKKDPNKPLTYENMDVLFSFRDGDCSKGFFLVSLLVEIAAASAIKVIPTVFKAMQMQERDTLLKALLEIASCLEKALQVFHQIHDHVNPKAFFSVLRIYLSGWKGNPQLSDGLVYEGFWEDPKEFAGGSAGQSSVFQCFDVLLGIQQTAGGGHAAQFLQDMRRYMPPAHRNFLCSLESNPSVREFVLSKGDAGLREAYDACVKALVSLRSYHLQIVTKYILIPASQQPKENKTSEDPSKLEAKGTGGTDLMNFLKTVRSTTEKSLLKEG
A short description of data set [5]: Toxicity in BALB/c mouse assessed as pathological changes in spleen at 50 to 100 mg/kg. The data set is classed as organism-based. To be noted: in vivo, dose 50-100 mg/kg.
Data set [6] concerns CT26. In words: Antitumor activity against mouse CT26 cells xenografted in BALB/c mouse model assessed as relative tumor volume growth at 50 mg/kg measured every 3 days for 21 days by caliper method relative to control. It counts as functional. The settings on record: time 21 day.
Data set [7] deals with HCT-116. In words: cells. To be noted: Homo sapiens, HCT-116, 48 h.
In data set [8] the test system is CT26. The data set is described as follows: Antitumor activity against mouse CT26 cells xenografted in BALB/c mouse model assessed as reduction in tumor weight at 100 mg/kg measured every 3 days for 21 days by caliper method relative to control. The data set is classed as functional. More on the design: scale not given: the % may be the effect or the level left. To be noted: time 21 day.

Data set [9] can be described thus: Toxicity in BALB/c mouse assessed as pathological changes in lungs at 50 to 100 mg/kg. The data set is classed as organism-based. The settings on record: in vivo, dose 50-100 mg/kg.
For data set [10], the system named is CT26. In words: Antitumor activity against mouse CT26 cells xenografted in BALB/c mouse model assessed as relative tumor volume growth at 100 mg/kg measured every 3 days for 21 days by caliper method relative to control. The data set is classed as functional. To be noted: time 21 day.
Data set [11] deals with T1, Indoleamine 2,3-dioxygenase 1. The data set is described as follows: Binding affinity to human recombinant IDO1 heme iron assessed as shift in soret peak at 2 mM by UV-visible spectroscopic analysis (reference value: […]).
Target sequence in this assay (P14902 whole entry, looked up): as above
Data set [12] shares this target. The data set is described as follows: Inhibition of human recombinant IDO1 measured after 60 mins by fluorescence based analysis.
Target sequence in this assay (P14902 whole entry): as the sequence (P14902 whole entry, looked up) above
Data set [13] has as its system A549. In words: cells. The settings on record: Homo sapiens, A549, 48 h.
Data set [14] addresses T1, Indoleamine 2,3-dioxygenase 1. The data set is described as follows: Binding affinity to human recombinant IDO1 assessed as dissociation rate constant measured for 60 sec by SPR assay.
Target sequence in this assay (P14902 whole entry): as the sequence (P14902 whole entry, looked up) above
Data set [15] relates to SW480. The data set is described as follows: cells. To be noted: Homo sapiens, SW480, 48 h.
The nature of data set [16]: Toxicity in BALB/c mouse assessed as pathological changes in heart at 50 to 100 mg/kg. The data set is classed as organism-based. To be noted: in vivo, dose 50-100 mg/kg.
In data set [17] the target is T1, Indoleamine 2,3-dioxygenase 1. In words: Inhibition of IDO1 in IFN-gamma treated human HeLa cells incubated for 48 hrs by absorbance based analysis. It counts as cell-based.
Target sequence in this assay (P14902 whole entry): as the sequence (P14902 whole entry, looked up) above
For data set [18], the system named is CT26. In words: Antitumor activity against mouse CT26 cells xenografted in BALB/c mouse model assessed as reduction in tumor weight at 50 mg/kg measured every 3 days for 21 days by caliper method relative to control. More on the design: scale not given: the % may be the effect or the level left. The data set is classed as functional. To be noted: time 21 day.

Data set [19] can be described thus: Toxicity in BALB/c mouse assessed as pathological changes in liver at 50 to 100 mg/kg. It counts as organism-based. The settings on record: in vivo, dose 50-100 mg/kg.
A short description of data set [20]: Toxicity in BALB/c mouse assessed as change in body weight at 100 mg/kg measured upto 22 days. It counts as organism-based. To be noted: in vivo, 528 h, time < 22 day.

As for `COc1ccc2/c(=N/O)cc(C(=O)N3CCN(S(=O)(=O)c4ccc(F)c(F)c4)CC3)oc2c1`, the Activity entry was “Non-Toxic” in [1]; “Non-Toxic” in data set [3]; “Dose-Dependent Effect” in [4]; “Non-Toxic” in data set [5]; 63.52% in data set [6]; 60.4% in [8]. The Activity result in [9] is “Non-Toxic”; in data set [10] it was 38.01%; in [11], 421 nm; in data set [16], “Non-Toxic”; in [18], 36.2%; in data set [19] it was “Non-Toxic”. Also, the IC50 in data set [2] was above 50 µM; in [7] it was above 50 µM; in data set [12], 0.64 µM; in data set [13] it was above 50 µM; in [15], 28.6 µM; in [17], 1.04 µM. Further, the koff in data set [14] came out at 0.11 s⁻¹.

Consider `Cn1cc(C[C@H](N)C(=O)O)c2ccccc21` [(L)-1-METHYLTRYPTOPHAN], for which the results for the Activity entry in [20] and in data set [8] were “Non-Toxic” and 45.6%, respectively.

For the compound `COc1ccc2/c(=N/O)cc(C(=O)N3CCN(S(=O)(=O)c4ccccc4C)CC3)oc2c1`, the IC50 in data set [2] is above 50 µM; in data set [7], 23.5 µM; in data set [12], above 10 µM; in data set [13], above 50 µM; in [15], above 50 µM; in [17] it was above 10 µM.

`COc1ccc2/c(=N/O)cc(C(=O)N3CCN(S(=O)(=O)c4ccc(F)cc4)CC3)oc2c1`: the concentration for half-maximal inhibition (IC50) in data set [2] was above 50 µM; in data set [7], above 50 µM; in data set [12] it was 5.72 µM; in [13], above 50 µM; in data set [15] it was 12.4 µM; in [17] it was 7.23 µM.

Consider `COc1ccc2/c(=N/O)cc(C(=O)N3CCN(S(=O)(=O)c4ccc(Cl)c(Cl)c4)CC3)oc2c1`, for which the IC50 is above 50 µM in data set [2]; above 50 µM in [7]; 3.73 µM in data set [12]; above 50 µM in data set [13]; above 50 µM in data set [15]; 7.61 µM in data set [17].

With `Cc1ccc2/c(=N/O)cc(C(=O)N3CCN(S(=O)(=O)c4ccc(F)cc4)CC3)oc2c1`, the IC50 in data set [2] is above 50 µM; in data set [7] it was 34.8 µM; in data set [12], 9.18 µM; in [13], above 50 µM; in data set [15], 31.2 µM; in [17], 9.29 µM.

For `Nc1nonc1C(=NO)Nc1ccc(F)c(Cl)c1`, the Activity entry in [20] is “Non-Toxic”; in [8] it was 70.9%; in data set [10], 26.05%.

`COc1ccc2/c(=N/O)cc(C(=O)N3CCN(S(=O)(=O)c4ccc([N+](=O)[O-])cc4)CC3)oc2c1`: the IC50 in data set [2] was 30.1 µM; in data set [7], above 50 µM; in data set [12], 3.58 µM; in data set [13], above 50 µM; in [15] it was above 50 µM; in [17] it was 5.66 µM.

As to `COc1ccc2/c(=N/O)cc(C(=O)N3CCN(S(=O)(=O)c4ccc(Br)cc4)CC3)oc2c1`, the IC50 in data set [2] is above 50 µM; in data set [7], 18.5 µM; in data set [12], 9.42 µM; in [13], above 50 µM; in data set [15], above 50 µM; in [17], above 10 µM.

For the compound `COc1ccc2/c(=N/O)cc(C(=O)N3CCN(S(=O)(=O)c4ccccc4Cl)CC3)oc2c1`, the 50% inhibitory concentration (IC50) in data set [2] is above 50 µM; in data set [7], above 50 µM; in data set [12] it was above 10 µM; in [13] it was above 50 µM; in data set [15], above 50 µM; in [17], above 10 µM.

In the case of `COc1ccc2/c(=N/O)cc(C(=O)N3CCN(S(=O)(=O)c4ccc(OC)c(OC)c4)CC3)oc2c1`, the IC50 in data set [2] was 34 µM; in data set [7], 47.8 µM; in [12], 0.92 µM; in data set [13], above 50 µM; in data set [15], above 50 µM; in data set [17] it was 1.68 µM.

For `COc1ccc(S(=O)(=O)N2CCN(C(=O)c3c/c(=N\O)c4ccc(OC)cc4o3)CC2)cc1`, the IC50 in data set [2] is 36.8 µM; in data set [7], 29.5 µM; in [12], 6.35 µM; in [13] it was above 50 µM; in data set [15], 39.2 µM; in data set [17] it was 8.52 µM.

Take `COc1ccc2/c(=N/O)cc(C(=O)N3CCN(S(=O)(=O)c4ccc(C(F)(F)F)cc4)CC3)oc2c1`: the half-maximal inhibitory concentration (IC50) in [2] is above 50 µM; in data set [7] it was above 50 µM; in [12] it was 2.69 µM; in data set [13], above 50 µM; in data set [15], above 50 µM; in data set [17], 6.37 µM.

For orientation: IC50 means the concentration at which inhibition is half-maximal. A word on the koff: it is a measure of how fast the partners let go of each other.
